Here are results for five molecules from patent US20130096156A1 (priority 2010, published 2013).

Where only a bound is given, the exact number is not on record here.

One series has as its system Phytophthora infestans. Put plainly: whole plant or invertebrate. Type of series: in vivo. Particulars: in Solanum lycopersicum, foliar, read-out: inhibit fungal infestation (percent disease control compared to untreated).
The test system of another series is Plasmopara viticola. As to the kind of experiment: Plasmopara viticola / grape / leaf disc preventative. In kind it is in vivo. Particulars: foliar, grape vine leaf disks, inoculated 1 day after application, assessed 6-8 days after application, read-out: inhibit fungal infestation (percent disease control compared to untreated). As for the experimental part:
(§1) Leaf disks of various plant species (diameter 14 mm) are cut from plants grown in the greenhouse. The cut leaf disks are placed in multiwell plates (24-well format) onto water agar. Immediately after cutting the leaf disks are sprayed with a test solution.
(§2) Compounds to be tested are prepared as DMSO solutions (max. 10 mg/ml). Just before spraying the solutions are diluted to the appropriate concentrations with 0.025% Tween20. After drying, the leaf disks are inoculated with a spore suspension of the appropriate pathogenic fungus.
(§3) After an incubation time of 3-7 days after inoculation at defined conditions (temp, rH, light, etc.) according to the respective test system, the activity of the test compound is assessed as antifungal activity.
Grape vine leaf disks are placed on water agar in multiwell plates (24-well format) and sprayed with the formulated test compound diluted in water. The leaf disks are inoculated with a spore suspension of the fungus 1 day after application. The inoculated leaf disks are incubated at 19° C. and 80% rh under a light regime of 12 h light/12 h darkness in a climate cabinet and the activity of a compound is assessed as percent disease control compared to untreated when an appropriate level of disease damage appears in untreated check leaf disks (6-8 days after application).

Series [1] deals with Blumeria graminis f. sp. tritici (Erysiphe graminis f. sp. tritici). As to the kind of experiment: Blumeria graminis f. sp. tritici / wheat / leaf disc preventative (powdery mildew on wheat). In kind it is in vivo. Particulars: foliar, wheat leaf segments cv. Kanzler, inoculated 1 day after application, assessed 6-8 days after application, read-out: inhibit fungal infestation (percent disease control compared to untreated). As for the experimental part:
as §1, §2, §3
Wheat leaf segments cv. Kanzler are placed on agar in a multiwell plate (24-well format) and sprayed with the formulated test compound diluted in water. The leaf disks are inoculated by shaking powdery mildew infected plants above the test plates 1 day after application. The inoculated leaf disks are incubated at 20° C. and 60% rh under a light regime of 24 h darkness followed by 12 h light/12 h darkness in a climate chamber and the activity of a compound is assessed as percent disease control compared to untreated when an appropriate level of disease damage appears on untreated check leaf segments (6-8 days after application).

The subject of series [2] is Phaeosphaeria nodorum (Septoria nodorum). Put plainly: Phaeosphaeria nodorum (Septoria nodorum) / wheat / leaf disc preventative (glume blotch). In kind it is in vivo. The settings on record: Parastagonospora nodorum, foliar, wheat leaf segments cv. Kanzler, inoculated 2 days after application, assessed 5-7 days after application, read-out: inhibit fungal infestation (percent disease control compared to untreated). As for the experimental part: as §1, §2, §3
Wheat leaf segments cv. Kanzler are placed on agar in a multiwell plate (24-well format) and sprayed with the formulated test compound diluted in water. The leaf disks are inoculated with a spore suspension of the fungus 2 days after application. The inoculated test leaf disks are incubated at 20° C. and 75% rh under a light regime of 12 h light/12 h darkness in a climate cabinet and the activity of a compound is assessed as percent disease control compared to untreated when an appropriate level of disease damage appears in untreated check leaf disks (5-7 days after application).

For another series, the system named is Pythium ultimum. Put plainly: Pythium ultimum / liquid culture (seedling damping off). In kind it is cell-based. The settings on record: Globisporangium ultimum, liquid culture in PDB, 24° C., 2-3 days after application, read-out: inhibit fungal infestation (inhibition of growth determined photometrically). As for the experimental part: Mycelia fragments or conidia suspensions of a fungus, prepared either freshly from liquid cultures of the fungus or from cryogenic storage, are directly mixed into nutrient broth. DMSO solutions of the test compound (max. 10 mg/ml) is diluted with 0.025% Tween20 by factor 50 and 10 μl of this solution is pipetted into a microtiter plate (96-well format) and the nutrient broth containing the fungal spores/mycelia fragments is then added to give an end concentration of the tested compound. The test plates are incubated at 24° C. and 96% rH in the dark. The inhibition of fungal growth is determined photometrically after 2-6 days and antifungal activity is calculated.
Mycelia fragments and oospores of a newly grown liquid culture of the fungus are directly mixed into nutrient broth (PDB potato dextrose broth). After placing a (DMSO) solution of test compound into a microtiter plate (96-well format), the nutrient broth containing the fungal mycelia/spore mixture is added. The test plates are incubated at 24° C. and the inhibition of growth is determined photometrically 2-3 days after application.

As usually defined, the melting point is the temperature, or range, at which the solid turns liquid. For the molecule `C#CC(C)(C)NC(=O)C(Oc1cc(C)c2ncc(C=C)cc2c1)SC` (stereo not drawn) [Compound 36, N-(1,1-Dimethyl-prop-2-ynyl)-2-methylsulfanyl-2-(8-methyl-3-vinyl-quinolin-6-yloxy)-acetamide], the melting point was 115 to 117 °C. Further, the inhibition at 200 ppm in the series with Phytophthora infestans was no less than 80%. For the same molecule, the inhibition at 200 ppm in the series on Plasmopara viticola was no less than 80%. Besides, the inhibition at 200 ppm in series [1] was no less than 80%. The inhibition at 200 ppm in series [2] was no less than 80%. In addition, in the series with Pythium ultimum, the inhibition at 200 ppm is no less than 80%.

The molecule `CCc1cnc2c(F)cc(OC(SC)C(=O)NC(C)(C)/C=N/OC)cc2c1` (stereo not drawn) [Compound 14, 2-(3-Ethyl-8-fluoro-quinolin-6-yloxy)-N-(2-methoxyimino-1,1-dimethyl-ethyl)-2-methylsulfanyl-acetamide] showed a melting point of 101 to 103 °C. The inhibition at 200 ppm with Phytophthora infestans was no less than 80%. Besides, the inhibition at 200 ppm in the series on Plasmopara viticola was no less than 80%. For the same molecule, the inhibition at 200 ppm in series [1] is no less than 80%. In addition, the inhibition at 200 ppm in series [2] was no less than 80%. Also, the inhibition at 200 ppm in the series with Pythium ultimum was no less than 80%.

Regarding `C=Cc1cnc2c(C)cc(OC(SC)C(=O)NC(C)(C)/C=N/OC)cc2c1` (stereo not drawn) [Compound 35, N-(2-Methoxyimino-1,1-dimethyl-ethyl)-2-methylsulfanyl-2-(8-methyl-3-vinyl-quinolin-6-yloxy)-acetamide], the melting point was in the range of 87 to 89 °C. The inhibition at 200 ppm with Phytophthora infestans is no less than 80%. In addition, the inhibition at 200 ppm in the series with Plasmopara viticola is no less than 80%. Also, the inhibition at 200 ppm in series [1] is no less than 80%. The inhibition at 200 ppm in series [2] was no less than 80%. Also, the inhibition at 200 ppm in the series with Pythium ultimum was no less than 80%.

Molecule `CO/N=C/C(C)(C)NC(=O)C(Oc1cc(C)c2ncc(C)cc2c1)SC` (stereo not drawn) [Compound 8, 2-(3,8-Dimethyl-quinolin-6-yloxy)-N-(2-methoxyimino-1,1-dimethyl-ethyl)-2-methylsulfanyl-acetamide] returned a melting point of 109 to 111 °C. In addition, the inhibition at 200 ppm in the series on Phytophthora infestans was no less than 80%. Moreover, the inhibition at 200 ppm in the series on Plasmopara viticola was no less than 80%. In addition, in series [1], the inhibition at 200 ppm is no less than 80%. In addition, the inhibition at 200 ppm in series [2] is no less than 80%. Besides, the inhibition at 200 ppm in the series with Pythium ultimum is no less than 80%.

The molecule `C=Cc1cnc2ccc(OC(SC)C(=O)NC(C)(C)/C=N/OC)cc2c1` (stereo not drawn) [Compound 34, N-(2-Methoxyimino-1,1-dimethyl-ethyl)-2-methylsulfanyl-2-(3-vinyl-quinolin-6-yloxy)-acetamide] came in with a melting point of 114 to 116 °C. Also, the inhibition at 200 ppm in the series on Phytophthora infestans is no less than 80%. Further, the inhibition at 200 ppm with Plasmopara viticola is no less than 80%. Moreover, the inhibition at 200 ppm in series [1] is no less than 80%. Further, the inhibition at 200 ppm in series [2] was no less than 80%. For the same molecule, the inhibition at 200 ppm with Pythium ultimum was no less than 80%.
